These results are taken from PubChem BioAssay (NCI).

Assay in all cases: NCI-60 cell line screen, 48 h
Experiment [1] concerns HOP-62 NSCLC.
Experiment [2] relates to SN12C renal.
In experiment [3] the test system is TK-10 renal.
For experiment [4], the system named is U251 CNS.
For experiment [5], the system named is CCRF-CEM leukemia.
Experiment [6] has as its system SNB-19 CNS.
Experiment [7] deals with NCI-H23 lung.
Experiment [8] concerns KM12 colon.
In experiment [9] the test system is UO-31 renal.
Experiment [10] relates to NCI-H522 lung.

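Following 48 hours of exposure in 96-well plates, responses at five concentrations were used to interpolate endpoints linearly. GI50 marks 50% less growth. Definition used: TGI = concentration required for complete inhibition of growth.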

With `C#CCOCn1cnc2c(=S)nc[nH]c21`, the TGI in experiment [1], in [2], in [3], in [4], in [5] and in experiment [6] was over 100 µM each time. Moreover, the TGI in [7], in experiment [8], in experiment [9] and in experiment [10] was over 100 µM in each case.
For the molecule `CNNCc1ccc(C(=O)NC(C)C)cc1`, the GI50 in experiment [1] and in [4] was over 500 µM in each case. In addition, the TGI in experiment [1], in experiment [2], in experiment [3], in [4], in experiment [5] and in experiment [6] was over 500 µM throughout. In addition, the TGI in experiment [7], in experiment [8], in [9] and in experiment [10] was over 500 µM in each case.
For the molecule `ClCc1ccc(-c2ccc(Cn3cnc4c(Cl)nc(Cl)nc43)cc2)cc1`, the GI50 in experiment [1] was 1.92 µM; in experiment [2] it was 2.72 µM; in [3], 2.11 µM; in [4] it was 1.89 µM; in experiment [5], 2.36 µM; in experiment [6] it was 1.95 µM. The GI50 is 3.18 µM in experiment [7], 2.12 µM in experiment [8], 3.32 µM in experiment [9] and 2.33 µM in experiment [10]. In addition, the TGI in experiment [1] worked out at 4 µM; in [2] it was 8.93 µM; in experiment [3] it was 4.42 µM; in [4], 3.64 µM; in [5], 5.9 µM; in [6], 4.15 µM. The TGI stood at 14.4 µM in experiment [7], 4.4 µM in experiment [8], 8.18 µM in [9] and 6.79 µM in [10].
With `COc1ccc(-c2nn(-c3cccc(NC(=O)Nc4ccc(Cl)c(C(F)(F)F)c4)c3)cc2-c2ccncc2)cc1Cl`, the GI50 is 3.37 µM in experiment [1]; 2.99 µM in experiment [2]; 4.8 µM in experiment [3]; 1.32 µM in experiment [4]; 1.9 µM in [5]; 3.77 µM in [6]. The GI50 in [7] is 3.01 µM; in [8] it was 2 µM; in experiment [9], 2.12 µM; in [10] it was 1.85 µM. Also, the TGI in experiment [1] is 17.3 µM; in experiment [2] it was over 100 µM; in experiment [3], 92.2 µM; in experiment [4] it was 3.34 µM; in experiment [5], 6.4 µM; in experiment [6], over 100 µM. Also, the TGI in [7] is 14.3 µM; in experiment [8], 8.55 µM; in [9], 13.3 µM; in [10], 6.77 µM.
For the molecule `Cc1c2c(nn1C(=O)c1nn(-c3ccc(Cl)cc3)cc1O)-c1ccccc1CC2`, the GI50 in experiment [1] is 0.0432 µM; in experiment [2], 0.0403 µM; in experiment [3], 0.0429 µM; in experiment [4], 0.0292 µM; in experiment [5] it was 0.0477 µM; in experiment [6], 0.0446 µM. The GI50 is 0.0411 µM in [7], 0.0632 µM in [8], 0.0603 µM in experiment [9] and 0.0376 µM in experiment [10]. The TGI in experiment [1] is over 100 µM; in [2], over 100 µM; in experiment [3], over 100 µM; in experiment [4], over 100 µM; in [5], over 49.1 µM; in [6], over 100 µM. The TGI in [7] was over 100 µM; in experiment [8], over 100 µM; in experiment [9], over 100 µM; in experiment [10], 0.717 µM.
With `COc1cc(/C=C/C(=O)c2ccc(Nc3ncnc4ccccc34)cc2)cc(OC)c1`, the GI50 in experiment [1] was 7.13 µM; in [2] it was 7.3 µM; in [3] it was 8.4 µM; in experiment [4] it was 2.24 µM; in experiment [5], 4.04 µM; in experiment [6] it was 9.99 µM. For the same molecule, the GI50 in experiment [7] was 5.08 µM; in experiment [8], 1.77 µM; in [9], 10.5 µM; in experiment [10], 6.69 µM. Further, the TGI in [1] was determined as 22.1 µM; in [2], 38 µM; in experiment [3] it was 24.4 µM; in experiment [4] it was 6.75 µM; in experiment [5], 22.8 µM; in experiment [6], 83.2 µM. For the same molecule, the TGI in experiment [7] was found to be 38.2 µM; in experiment [8] it was 5.38 µM; in experiment [9], 28.6 µM; in experiment [10], 30.1 µM.
In the case of `COC(=O)C1=CN=C(C(=O)OC)NN1`, the TGI in [1], in experiment [2], in [3], in [4], in experiment [5] and in experiment [6] was over 100 µM throughout. In addition, the TGI in experiment [7], in experiment [8], in [9] and in experiment [10] was over 100 µM throughout.
`COc1cc(/C=C2\CN(C)C/C(=C\c3cc(OC)c(OC)c(OC)c3)C2=O)cc(OC)c1OC`: the GI50 in experiment [1] is 0.36 µM; in [2], 0.267 µM; in experiment [3], 0.247 µM; in experiment [4], 0.257 µM; in experiment [5], 0.271 µM; in [6], 1.14 µM. For the same molecule, the GI50 in experiment [7] was 0.42 µM; in [8], 0.195 µM; in experiment [9], 0.28 µM; in [10], 0.234 µM. Further, the TGI in experiment [1] was determined as 1.13 µM; in experiment [2], 0.833 µM; in experiment [3] it was 0.771 µM; in experiment [4] it was 0.746 µM; in [5] it was 1.13 µM; in experiment [6] it was 2.6 µM. For the same molecule, the TGI in experiment [7] was 1.61 µM; in [8], 0.394 µM; in experiment [9], 0.818 µM; in experiment [10], 0.624 µM.
